Experimental data reported in paper PMC9369442, “Synthetic Peucedanocoumarin IV Prevents α-Synuclein Neurotoxicity in an Animal Model of Parkinson’s Disease” (International Journal of Molecular Sciences, 2022).

Tests used:
[1] = system: α-synuclein PFF-treated mice cortical neurons; test: PFF-induced α-synucleinopathy in primary cortical neurons, immunofluorescence; assay type: cell-based, mouse; details: for endogenous α-synuclein expression: PBS- or PFF-treated mouse cortical neurons
Protocol: Figure 2 PCiv prevents α-synuclein aggregation in vitro and in cultured neurons with PFF treatment. (A) Representative Western blots showing the degree of recombinant α-synuclein (αSyn) aggregation in a test tube in the presence or absence of PCiv (100 μM) at the indicated incubation duration (phosphate-buffered saline [PBS], 37 °C for 3 or 5 days). Aggregation of α-synuclein was determined using α-synuclein antibody. (B) Quantification of the relative amount of α-synuclein aggregate in high molecular weight sizes in panel A (n = 3 per group). (C) Representative immunofluorescence of MAP2 and Lewy-like inclusion marker pS129-αSyn in mice cortical neurons treated with α-synuclein preformed fibril (PFF) (1 μg, for 14 days). To evaluate the protective effects of PCiv as compared with PCiii, these compounds were treated (1 μM every 2 days for 14 days) following the PFF treatment. (D) Quantification of pS129-αSyn immunofluorescence signal intensities in MAP2-positive cortical neurons in each experimental group (n = 15 cells from three separate experiments). (E) Cell viability assessment in the indicated experimental groups was monitored by CCK-8 assay (n = 3 per group). The data are expressed as means ± SEMs. * p < 0.05, ** p < 0.01, *** p < 0.001, and **** p < 0.0001, ANOVA test followed by Tukey’s post hoc analysis.
CD1 mice were purchased from Orient Co. for use in the mouse primary neuron culture. E14 embryos from CD1 mice were dissected for primary cortical neurons in Neurobasal A medium (Gibco, Thermo Fisher Scientific Inc., Waltham, MA, USA) supplemented with B-27 (Gibco, Thermo Fisher Scientific Inc., Waltham, MA, USA) and 1 mM L-glutamine. Next, the primary cortical neurons were maintained in a poly L-lysine-coated tissue culture plate, and the medium was changed every 2–3 days. After 7 days, PFF was added to the cortical neurons and incubated for 14 days to observe the p-S129-α-synuclein signal which was used for immunofluorescence analysis. […] The optical value was read at 450 nm using a multi-detection microplate reader (Synergy, BioTek Instruments Inc., Winooski, VT, USA). […]
(A) Representative Western blots showing the degree of recombinant α-synuclein (αSyn) aggregation in a test tube in the presence or absence of t-Khellatone, PCiii, and PCiv (100 μM) at 0 and 5 days of incubation (phosphate-buffered saline [PBS], 37 °C for 5 days). Aggregation of α-synuclein was determined using α- synuclein antibody. (B) Quantification of relative amount of α-synuclein aggregate in high molecular weight sizes in panel A (n = 3 per group). […] (D) Quantification of filament conformation-αSyn (Filament) immunofluorescence signal intensities in MAP2 -positive cortical neurons in each experimental group (n = 15 cells from three separate experiments). […]

[2] = system: SH-SY5Y cells with Tet-Off conditional expression of β23; test: Trypan blue exclusion cell viability assay, Tet-Off β23 expression; assay type: cell-based; details: for effect on β23-induced cytotoxicity: 1 μM, 24 h; for EC50: Homo sapiens, Tet-Off β23, trypan blue exclusion, read-out: median effective concentration, cytoprotection against β23 toxicity; for cytotoxicity of the compound at high concentrations: up to 4 µM
Protocol: Figure 1 Peucedanocoumarin IV (PCiv) inhibits β23 aggregations and cytotoxicity in SH-SY5Y cells. (A) Scheme showing the detailed experimental steps in the organic synthesis of racemic PCiv and racemic PCiii (rac-PCiii, and rac-PCiv). Both PCiii and PCiv used in this study are racemic forms. (B) Trypan blue exclusion cell viability assessment in SH-SY5Y cells with Tet-Off-induced β23 expressions. β23 was expressed for 24 h using the Tet-off system. Further expression of β23 was halted by doxycycline (Dox) treatment with simultaneous treatment of the PCiii, PCiv, or their synthetic intermediate, trans-khellatone (t-khellatone, 1 μM 24 h). Cell viability was assessed 24 h after doxycycline treatment (n = 5 per group). (C) Synthetic PCiv’s protective effect on Tet-Off-expressed β23 toxicity in SH-SY5Y cells compared with peucedanocoumarin III (PCiii) determined by trypan blue exclusion assay. (D) The degradation of β23 monitored by Western blot at 37 h after doxycycline (200 ng/mL) treatment. The representative Western blot image of HA (β23) in SH-SY5Y cells treated with synthetic PCiii, synthetic PCiv (1 μM, 37 h), or DMSO as a vehicle. (E) Quantification of HA (β23) expression in SH-SY5Y cells from the indicated experimental groups in panel D (n = 3 experiments per group). (F) Representative immunofluorescence of steady state HA (β23) expression in SH-SY5Y cells expressing Tet-Off regulatable reporter mCherry and HA-tagged β23. HA-β23 was expressed for 24 h using the Tet-off system. Further expression of β23 was halted by Dox treatment in the presence of PCiii or PCiv (1 μM, 37 h). (G) Quantification of HA (β23) immunofluorescence signal in mCherry positive SH-SY5Y cells in each experimental group (n = 32 cells from three separate experiments per group). The data are expressed as means ± SEMs. * p < 0.05, ** p < 0.01, *** p < 0.001, and **** p < 0.0001, ANOVA test followed by Tukey’s post hoc analysis. Two-way ANOVA was used in panel C.
Human neuroblastoma SH-SY5Y cells (ATCC, Manassas, VA, USA) were grown in complete media containing DMEMs, 10% fetal bovine serum (vol/vol), and antibiotics (penicillin-streptomycin 100 U/mL, Thermo Fisher Scientific, Waltham, MA, USA). The atmospheric condition used to preserve the cells consisted of 5% CO2/95% air at 37 °C and maintained a humidified environment. X-tremeGENE HP transfection reagents (Roche, Basel, Switzerland) were used for transient transfection of DNA constructs (pCMV-tTA, TetP-β23, and pTet-dual2 [5]) following the manufacturer’s instructions.
SH-SY5Y cells were plated in 12-well plates at a density of 0.2 × 10^6 cells per well. Following transient transfection with the indicated constructs and subsequent treatment protocol, the cells were harvested by trypsinization, thereby yielding single-cell suspensions. The cells were washed twice with phosphate-buffered saline (PBS) and resuspended in serum-free DMEM. The resuspended cells were mixed with an equal volume of 0.4% trypan blue (w/v) and incubated for 2 min at room temperature. Live and dead cells were counted using a Countess II Automated Cell Counter (Life Technologies, Carlsbad, CA, USA) for assessing cell viability.

[3] = 1 μM every 2 days for 14 days, PFF 1 μg

| SMILES | PFF-induced elevation of filament conformation-αSyn signal [1, 3] | PFF-induced elevation of pS129-αSyn signal [1, 3] | endogenous α-synuclein expression [1] | effect on β23-induced cytotoxicity [2] | EC50 [2] [nM] | cytotoxicity of the compound at high concentrations [2] |
| --- | --- | --- | --- | --- | --- | --- |
| C/C=C(\C)C(=O)O[C@H]1[C@H](OC(C)=O)c2c(ccc3ccc(=O)oc23)OC1(C)C (relative stereo) [PCiv, trans-4′-acetyl-3′-tigloylkhellactone] | mitigated | mitigated | not affected | nearly equivalent cytoprotective biological function | 204 | no obvious cytotoxicity |
| C/C=C(\C)C(=O)O[C@@H]1c2c(ccc3ccc(=O)oc23)OC(C)(C)[C@H]1OC(C)=O (relative stereo) [PCiii, peucedanocoumarin III] |  |  | not affected | potently prevented | 318 | no obvious cytotoxicity |
